# Molecular target: TNF-α
# Experiment: Inhibition of TNFα in culture supernatant of LPS-stimulated peripheral human leukocytes, TNFα-specific enzyme immunoassay
# Format: cell-based
# Settings: Periphere humane Leukozyten, LPS über 22 Std., Kulturüberstand
# Source text: […] humane Leukozyten werden mit LPS über 22 Std. inkubiert. Der Kulturüberstand wird mit einem TNFα spezifischen Enzym-Immuno-Assay untersucht. Durch Vergleich der für die Messproben erhaltenen TNFα-Konzentrationen mit den ungehemmten Proben wird die prozentuale Hemmung fiir die einzelne Probe berechnet. Aus der […]. Der IC50-Wert läßt sich wie folgt ermitteln: v = v0 /(1 + [I] / IC50 ) [formula] • v = […]0 = […] ohne Inhibitor • [I] = […] IC50-Werte, der in den Beispielen beschriebenen Substanzen gegen TNF-α finden sich in der folgenden Tabelle:
row,Structure (SMILES),IC50 [nM]
1,"CCOC(=O)c1c2ccc(CC(=O)O)ccc-2c(C(=O)O)c1N [Beispiel 2, 2-Amino-6-carboxylmethyl-azulen-1,3-dicarbonsäuremonoethylester]",10500
2,"CC(C)(C)OC(=O)c1c2ccc(Br)ccc-2c(C(=O)OC(C)(C)C)c1N [Beispiel 9, 2-Amino-6-bromo-azulen-1,3-dicarbonsäure-di-tert-butylester]",2300
3,"CCOC(=O)c1c2ccc(C(C(=O)NC(N)=O)C(=O)OCC)ccc-2c(C(=O)OCC)c1N (centres unmarked) [Beispiel 6, 2-Amino-6-(1-ethoxycarbonyl-2-oxo-2-ureido-ethyl)-azulen-1,3-dicarbonsäurediethylester]",15000
4,"CC(C)(C)OC(=O)c1c2cccccc-2c(C(=O)OC(C)(C)C)c1N [Beispiel 7, 2-Amino-azulen-1,3-dicarbonsäure-di-tert-butylester]",2800
5,"CCOC(=O)c1c2cccccc-2c(C(=O)OC(C)(C)C)c1N [Beispiel 8, 2-Amino-azulen-1,3-dicarbonsäure-tert-butyl-ethylester]",8000
6,"CC(=O)N(C(C)=O)c1c(C(=O)OC(C)(C)C)c2ccc(C(C(=O)OC(C)(C)C)C(=O)OC(C)(C)C)ccc-2c1C(=O)OC(C)(C)C [Beispiel 11, 6-(Bis-tert-butoxycarbonyl-methyl)-2-diacetylamino-azulene-1,3-dicarbonsäure-di-tert-butylester]",4200
7,"CC(=O)N(C(C)=O)c1c(C(=O)OC(C)(C)C)c2ccc(Br)ccc-2c1C(=O)OC(C)(C)C [Beispiel 10, 2-Diacetylamino-6-bromo-azulen-1,3-dicarbonsäure-di-tert-butylester]",500
8,"CCOC(=O)c1c2ccc(CC(=O)NO)ccc-2c(C(=O)OCC)c1N [Beispiel 3, 2-Amino-6-hydroxycarbamoylmethyl-azulen-1,3-dicarbonsäurediethylester]",1
9,"CCOC(=O)c1c2ccc(CC(=O)O)ccc-2c(C(=O)OCC)c1NC(C)=O [Beispiel 4, 2-Acetylamino-6-carboxymethyl-azulen-1,3-dicarbonsäurediethylester]",4100
10,"CCOC(=O)c1c2ccc(CC(=O)NO)ccc-2c(C(=O)OCC)c1NC(C)=O [Beispiel 5, 2-Acetylamino-6-hydroxycarbamoylmethyl-azulen-1,3-dicarbonsäurediethylester]",20
11,"CCOC(=O)c1c2ccc(CC(=O)O)ccc-2c(C(=O)OCC)c1N [Beispiel 1, 2-Amino-6-carboxylmethyl-azulen-1,3-dicarbonsäurediethylester]",160
